Measurements published in ChEMBL document CHEMBL1135093, “Phthalazine PDE4 inhibitors. Part 3: the synthesis and in vitro evaluation of derivatives with a hydrogen bond acceptor” (Bioorg Med Chem Lett, 2002).

Legend:
Format in all cases: protein assay
Phosphodiesterase 4 [1] = molecular target: T1, Phosphodiesterase 4 (Homo sapiens, UniProt P27815+Q08499+Q07343+Q08493); experiment: Selectivity for rolipram binding site over phosphodiesterase 4
Phosphodiesterase 4 [2] = molecular target: T1, Phosphodiesterase 4; experiment: Affinity for rolipram binding site (RBS) of human neutrophil phosphodiesterase type IV (PDE4)
Phosphodiesterase 4 [3] = molecular target: T1, Phosphodiesterase 4; experiment: Inhibition of human neutrophil phosphodiesterase type IV (PDE4)
Phosphodiesterase 4 [4] = molecular target: T1, Phosphodiesterase 4; experiment: Inhibition of human phosphodiesterase type IV (PDE4) at 10e-7 M
Phosphodiesterase 4 [5] = molecular target: T1, Phosphodiesterase 4; experiment: Inhibition of rolipram binding to phosphodiesterase type IV (PDE4) at 10e-7 M
Phosphodiesterase 4 [6] = molecular target: T1, Phosphodiesterase 4; experiment: Inhibition of rolipram binding to phosphodiesterase type IV (PDE4)
Phosphodiesterase 4 [7] = molecular target: T1, Phosphodiesterase 4; experiment: Inhibition of rolipram binding to phosphodiesterase type IV (PDE4) at 10e-6 M

| SMILES | Ratio (Phosphodiesterase 4 [1]) | Ki (Phosphodiesterase 4 [2]) [nM] | IC50 (Phosphodiesterase 4 [3]) [nM] | inhibition (Phosphodiesterase 4 [4]) [%] | Binding (Phosphodiesterase 4 [5]) [%] | Binding (Phosphodiesterase 4 [6]) [%] | Binding (Phosphodiesterase 4 [7]) [%] |
| --- | --- | --- | --- | --- | --- | --- | --- |
| CCOC(=O)C(=O)N1Cc2cc(OC)ccc2C(Cc2c(Cl)cncc2Cl)=N1 | 1.9 | 212 | 113 |  |  |  |  |
| COc1ccc2c(c1)CN(C(=O)N(C)C)N=C2Cc1c(Cl)cncc1Cl |  | 473 |  | 35 |  |  |  |
| COc1ccc2c(Cc3c(Cl)cncc3Cl)nncc2c1OC1CCCC1 | 2.8 |  |  |  |  |  |  |
| COc1ccc2c(c1OC1CCCC1)CN(C(C)=O)N=C2Cc1c(Cl)cncc1Cl | 4.3 | 128 | 30 |  |  |  |  |
| COc1ccc2c(c1OC1CCCC1)CN(S(C)(=O)=O)N=C2Cc1c(Cl)cncc1Cl | 2.5 | 5 | 2 |  |  |  |  |
| COc1ccc2c(c1)CN(C(=O)Cc1ccccc1)N=C2Cc1c(Cl)cncc1Cl | > 20 |  | 12 |  | 36 |  |  |
| COc1ccc2c(Cc3c(Cl)cncc3Cl)nncc2c1 |  |  |  | 0 |  | 42 |  |
| COc1ccc2c(c1)CNN=C2Cc1c(Cl)cncc1Cl |  |  |  | 14 |  |  | 13 |
| COc1ccc2c(c1)CN(C(=O)NO)N=C2Cc1c(Cl)cncc1Cl | 2.4 | 208 | 85 |  |  |  |  |
| COc1ccc2c(c1)CN(C(=O)c1ccccc1)N=C2Cc1c(Cl)cncc1Cl | > 20 |  | 30 |  | 17 |  |  |

Results, then the molecule that gave them:

| Ratio (Phosphodiesterase 4 [1]) | Ki (Phosphodiesterase 4 [2]) [nM] | IC50 (Phosphodiesterase 4 [3]) [nM] | inhibition (Phosphodiesterase 4 [4]) [%] | Binding (Phosphodiesterase 4 [5]) [%] | Binding (Phosphodiesterase 4 [6]) [%] | Binding (Phosphodiesterase 4 [7]) [%] | SMILES |
| --- | --- | --- | --- | --- | --- | --- | --- |
| 7.8 | 397 | 51 |  |  |  |  | COc1ccc2c(c1)CN(C(C)=O)N=C2Cc1c(Cl)cncc1Cl |
| 19.9 | 498 | 25 |  |  |  |  | COc1ccc2c(c1)CN(C(=O)C(C)C)N=C2Cc1c(Cl)cncc1Cl |
| 2.9 | 60 | 21 |  |  |  |  | COc1ccc2c(c1)CN(S(C)(=O)=O)N=C2Cc1c(Cl)cncc1Cl |
|  | 138 |  | 45 |  |  |  | COc1ccc2c(c1)CN(C=O)N=C2Cc1c(Cl)cncc1Cl |
| 8.5 | 237 | 28 |  |  |  |  | CCC(=O)N1Cc2cc(OC)ccc2C(Cc2c(Cl)cncc2Cl)=N1 |
| 1.7 | 63 | 36 |  |  |  |  | COc1ccc2c(c1)CN(C(N)=O)N=C2Cc1c(Cl)cncc1Cl |
| 2.8 | 199 | 72 |  |  |  |  | COC(=O)N1Cc2cc(OC)ccc2C(Cc2c(Cl)cncc2Cl)=N1 |
| 1.8 | 235 | 131 |  |  |  |  | CNC(=O)N1Cc2cc(OC)ccc2C(Cc2c(Cl)cncc2Cl)=N1 |
